Assay results as given in the Kinase Knowledgebase extract (Sharma et al. 2016).
pIC50: −log10 of the molar value.

Target: MAPK14 (human) (UniProt Q16539)
Assay: Inhibition of LPS Stimulated TNF Production by U937 Cells
Details: for inhibition: concentration not given here

Sequence of MAPK14 (human) (Q16539 whole entry, looked up): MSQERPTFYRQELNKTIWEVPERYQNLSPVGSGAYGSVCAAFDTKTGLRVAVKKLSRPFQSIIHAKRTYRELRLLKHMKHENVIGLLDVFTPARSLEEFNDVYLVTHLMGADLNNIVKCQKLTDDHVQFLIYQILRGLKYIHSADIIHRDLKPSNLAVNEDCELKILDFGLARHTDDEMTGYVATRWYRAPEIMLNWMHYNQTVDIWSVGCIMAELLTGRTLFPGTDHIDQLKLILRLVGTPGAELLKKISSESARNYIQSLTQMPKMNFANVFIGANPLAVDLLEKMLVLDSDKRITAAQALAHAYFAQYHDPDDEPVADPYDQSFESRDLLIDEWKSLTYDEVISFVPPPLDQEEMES

Row | inhibition [%] | pIC50 | Compound
1 | 55 |  | O=C(NCc1[nH]nc(-c2ccc(F)cc2)c1-c1ccncc1)c1ccccc1Cl
2 | 14 |  | Cc1ccc(S(=O)(=O)N2CCC(c3[nH]nc(-c4ccc(F)cc4)c3-c3ccncc3)CC2)cc1
3 |  | 5.95 | Fc1ccc(-c2n[nH]cc2-c2ccnc3ccccc23)cc1
4 |  | 6.59 | CN(C)CCNc1cc(-c2c[nH]nc2-c2ccc(F)cc2)ccn1
5 | 63 |  | CCN(CC)C(=O)N[C@@H](C)c1[nH]nc(-c2ccc(F)cc2)c1-c1ccncc1
6 | 89 |  | Cc1cccc(Cl)c1S(=O)(=O)N[C@@H](C)c1[nH]nc(-c2ccc(F)cc2)c1-c1ccncc1
7 | 56 |  | CC1(C)[C@@H]2CC[C@]1(S(=O)(=O)NCCc1[nH]nc(-c3ccc(F)cc3)c1-c1ccncc1)C(=O)C2
8 | 20 |  | O=C(NCc1[nH]nc(-c2ccc(F)cc2)c1-c1ccncc1)c1ccc(Cl)cc1Cl
9 | 54 |  | O=C(NCc1[nH]nc(-c2ccc(F)cc2)c1-c1ccncc1)c1ccc(F)cc1F
10 |  | 6.06 | CC(=O)OC(C)(C)C(=O)N[C@@H](C)c1[nH]nc(-c2ccc(F)cc2)c1-c1ccncc1
11 | 52 |  | C[C@@H](NC(=O)c1cc(F)c(F)cc1F)c1[nH]nc(-c2ccc(F)cc2)c1-c1ccncc1
12 | 14 |  | N#Cc1cccc(S(=O)(=O)N2CCC(c3[nH]nc(-c4ccc(F)cc4)c3-c3ccncc3)CC2)c1
13 | 89 |  | C[C@@H](NS(=O)(=O)c1ccc(Br)cc1)c1[nH]nc(-c2ccc(F)cc2)c1-c1ccncc1
14 | 5 |  | CCS(=O)(=O)N[C@H](Cc1ccccc1)c1[nH]nc(-c2ccc(F)cc2)c1-c1ccncc1
15 | 95 |  | C[C@@H](NS(=O)(=O)c1ccccc1Cl)c1[nH]nc(-c2ccc(F)cc2)c1-c1ccncc1
16 | 97 |  | C[C@@H](NS(=O)(=O)c1cccc(Cl)c1)c1[nH]nc(-c2ccc(F)cc2)c1-c1ccncc1
17 | 48 |  | C[C@@H](NC(=O)c1cc(F)cc(F)c1)c1[nH]nc(-c2ccc(F)cc2)c1-c1ccncc1
18 | 22 |  | O=C(NCc1[nH]nc(-c2ccc(F)cc2)c1-c1ccncc1)c1ccc(F)c(C(F)(F)F)c1
19 | 94 |  | Cc1ccccc1S(=O)(=O)N[C@@H](C)c1[nH]nc(-c2ccc(F)cc2)c1-c1ccncc1
20 | 17 |  | C[C@H](NC(=O)c1cccc(Cl)c1Cl)c1[nH]nc(-c2ccc(F)cc2)c1-c1ccncc1
21 | 35 |  | C[C@H](NC(=O)c1c(Cl)cccc1Cl)c1[nH]nc(-c2ccc(F)cc2)c1-c1ccncc1
22 | 80 |  | C[C@@H](NS(=O)(=O)c1ccccc1S(C)(=O)=O)c1[nH]nc(-c2ccc(F)cc2)c1-c1ccncc1
23 | 11 |  | O=C(NCCc1[nH]nc(-c2ccc(F)cc2)c1-c1ccncc1)c1cccc(Cl)c1Cl

Row | inhibition [%] | pIC50 | Compound
24 |  | 6.57 | CN(C)CCCNc1n[nH]c(-c2ccc(F)cc2)c1-c1ccncc1
25 | 2 |  | CN(C)c1cccc2c(S(=O)(=O)NCc3[nH]nc(-c4ccc(F)cc4)c3-c3ccncc3)cccc12
26 | 50 |  | CCNC(=O)N[C@@H](C)c1[nH]nc(-c2ccc(F)cc2)c1-c1ccncc1
27 | 4 |  | CCCCCCCC(=O)NCc1[nH]nc(-c2ccc(F)cc2)c1-c1ccncc1
28 |  | 5.89 | Cn1cc(-c2ccnc(F)c2)c(-c2ccc(F)c(F)c2)n1
29 | 67 |  | O=C(NCc1[nH]nc(-c2ccc(F)cc2)c1-c1ccncc1)C(F)(F)F
30 |  | < 6.00 | COc1ccc(C)cc1S(=O)(=O)NCc1[nH]nc(-c2ccc(F)cc2)c1-c1ccncc1
31 | 37 |  | C[C@H](NC(=O)N1CCOCC1)c1[nH]nc(-c2ccc(F)cc2)c1-c1ccncc1
32 | 25 |  | O=S(=O)(c1ccc(Cl)cc1)N1CCC(c2[nH]nc(-c3ccc(F)cc3)c2-c2ccncc2)CC1
33 | 21 |  | COc1cc(C(=O)NCc2[nH]nc(-c3ccc(F)cc3)c2-c2ccncc2)cc(OC)c1OC
34 | 37 |  | O=S(=O)(NCc1[nH]nc(-c2ccc(F)cc2)c1-c1ccncc1)c1ccc(Cl)cc1
35 | 22 |  | CC(C)(C)C(=O)N[C@@H](Cc1ccccc1)c1[nH]nc(-c2ccc(F)cc2)c1-c1ccncc1
36 |  | < 6.00 | O=S(=O)(c1cccc(Br)c1)N1CCC(c2[nH]nc(-c3ccc(F)cc3)c2-c2ccncc2)CC1
37 | 76 |  | COc1ccc(C)cc1S(=O)(=O)N[C@@H](C)c1[nH]nc(-c2ccc(F)cc2)c1-c1ccncc1
38 | 58 |  | C[C@H](NC(=O)c1ccc(F)cc1C(F)(F)F)c1[nH]nc(-c2ccc(F)cc2)c1-c1ccncc1
39 | 24 |  | O=C(NCCCc1[nH]nc(-c2ccc(F)cc2)c1-c1ccncc1)NCCc1ccccn1
40 |  | < 6.00 | CNC(=O)CC[C@H](NC(=O)c1ccc(C)cc1)c1[nH]nc(-c2ccc(F)cc2)c1-c1ccncc1
41 | 81 |  | COc1ccc(OC)c(S(=O)(=O)N[C@H](C)c2[nH]nc(-c3ccc(F)cc3)c2-c2ccncc2)c1
42 | 27 |  | C[C@@H](NC(=O)c1ccno1)c1[nH]nc(-c2ccc(F)cc2)c1-c1ccncc1
43 | 14 |  | O=C(NCc1[nH]nc(-c2ccc(F)cc2)c1-c1ccncc1)[C@H]1CCCN1C(=O)OCC1c2ccccc2-c2ccccc21
44 | 67 |  | C[C@@H](NC(=O)c1cc(F)ccc1F)c1[nH]nc(-c2ccc(F)cc2)c1-c1ccncc1
45 |  | 6.34 | Cn1cc(-c2ccncc2)c(-c2cccc(F)c2)n1
46 | 22 |  | CCOC(=O)CCCC(=O)NCc1[nH]nc(-c2ccc(F)cc2)c1-c1ccncc1

Row | inhibition [%] | pIC50 | Compound
47 | 36 |  | O=C(NCc1[nH]nc(-c2ccc(F)cc2)c1-c1ccncc1)c1cc(F)c(F)cc1F
48 | 26 |  | O=C(NCc1[nH]nc(-c2ccc(F)cc2)c1-c1ccncc1)c1cc(F)cc(C(F)(F)F)c1
49 | 60 |  | O=S(=O)(NCc1[nH]nc(-c2ccc(F)cc2)c1-c1ccncc1)c1ccc(C(F)(F)F)cc1
50 |  | 6.57 | O=C(c1ccc(I)cc1)N1CCC(c2[nH]nc(-c3ccc(F)cc3)c2-c2ccncc2)CC1
51 | 25 |  | COc1ccc(S(=O)(=O)N[C@H](C)c2[nH]nc(-c3ccc(F)cc3)c2-c2ccncc2)cc1OC
52 | 95 |  | C[C@H](NS(=O)(=O)c1ccc(Cl)s1)c1[nH]nc(-c2ccc(F)cc2)c1-c1ccncc1
53 |  | < 6.00 | O=C(N[C@H](Cc1ccccc1)c1[nH]nc(-c2ccc(F)cc2)c1-c1ccncc1)c1ccc(F)c(F)c1F
54 |  | < 6.00 | CCNC(=O)N[C@@H](CCC(=O)NC)c1[nH]nc(-c2ccc(F)cc2)c1-c1ccncc1
55 | 76 |  | COc1ccc(Cl)cc1S(=O)(=O)N[C@@H](C)c1[nH]nc(-c2ccc(F)cc2)c1-c1ccncc1
56 | 55 |  | O=C(NCc1[nH]nc(-c2ccc(F)cc2)c1-c1ccncc1)[C@@H]1CCCN1C(=O)OCC1c2ccccc2-c2ccccc21
57 | 54 |  | O=S(=O)(NCc1[nH]nc(-c2ccc(F)cc2)c1-c1ccncc1)c1cccc2nonc12
58 | 21 |  | Cc1onc(-c2ccccc2Cl)c1C(=O)NCc1[nH]nc(-c2ccc(F)cc2)c1-c1ccncc1
59 | 27 |  | C[C@H](NC(=O)c1ccc(F)c(C(F)(F)F)c1)c1[nH]nc(-c2ccc(F)cc2)c1-c1ccncc1
60 | 32 |  | C[C@H](NC(=O)c1cc(C(F)(F)F)ccc1F)c1[nH]nc(-c2ccc(F)cc2)c1-c1ccncc1
61 | 12 |  | C[C@@H](NC(=O)C1CCCC1)c1[nH]nc(-c2ccc(F)cc2)c1-c1ccncc1
62 |  | < 5.00 | Fc1ccc(-c2nn(CCN3CCOCC3)cc2-c2ccnc(F)c2)cc1
63 |  | < 6.00 | O=C(NCCCc1[nH]nc(-c2ccc(F)cc2)c1-c1ccncc1)NCCc1c[nH]cn1
64 | 13 |  | O=C(NCc1[nH]nc(-c2ccc(F)cc2)c1-c1ccncc1)c1cccc(C(F)(F)F)c1
65 |  | < 6.00 | CC(=O)OC(C)(C)C(=O)N[C@H](Cc1ccccc1)c1[nH]nc(-c2ccc(F)cc2)c1-c1ccncc1
66 | 77 |  | C[C@H](NS(=O)(=O)c1c(Cl)cccc1Cl)c1[nH]nc(-c2ccc(F)cc2)c1-c1ccncc1
67 | 63 |  | C[C@@H](NC(=O)c1ccc(C(F)(F)F)cc1)c1[nH]nc(-c2ccc(F)cc2)c1-c1ccncc1
68 |  | 6.77 | Clc1ccc(-c2n[nH]cc2-c2ccncc2)cc1Cl
69 | 31 |  | C[C@H](NC(=O)c1ccccc1F)c1[nH]nc(-c2ccc(F)cc2)c1-c1ccncc1

Row | inhibition [%] | pIC50 | Compound
70 |  | 6.43 | O=C(c1cccs1)N1CCC(c2[nH]nc(-c3ccc(F)cc3)c2-c2ccncc2)CC1
71 | 3 |  | O=S(=O)(c1ccc(-c2ccon2)s1)N1CCC(c2[nH]nc(-c3ccc(F)cc3)c2-c2ccncc2)CC1
72 |  | 5.90 | O=C(COc1ccc(Cl)cc1)NCc1[nH]nc(-c2ccc(F)cc2)c1-c1ccncc1
73 | 30 |  | C[C@@H](NC(=O)N(C)c1ccccc1)c1[nH]nc(-c2ccc(F)cc2)c1-c1ccncc1
74 |  | 5.92 | Cc1cnccc1-c1c[nH]nc1-c1ccc(F)cc1
75 | 11 |  | CN(C)CCNC(=O)NCCCc1[nH]nc(-c2ccc(F)cc2)c1-c1ccncc1
76 | 10 |  | COc1ccc(S(=O)(=O)NCc2[nH]nc(-c3ccc(F)cc3)c2-c2ccncc2)c([N+](=O)[O-])c1
77 | 22 |  | COc1ccc(C(=O)NCc2[nH]nc(-c3ccc(F)cc3)c2-c2ccncc2)cc1OC
78 | 28 |  | CN(C)c1cccc2c(S(=O)(=O)NCCc3[nH]nc(-c4ccc(F)cc4)c3-c3ccncc3)cccc12
79 | 28 |  | COc1ccc(CC(=O)N[C@@H](C)c2[nH]nc(-c3ccc(F)cc3)c2-c2ccncc2)cc1OC
80 |  | > 6.00 | COc1ccc(S(=O)(=O)N[C@@H](Cc2ccccc2)c2[nH]nc(-c3ccc(F)cc3)c2-c2ccncc2)cc1OC
81 |  | 7.54 | CCCc1n[nH]c(-c2cccc(C)c2)c1-c1ccncc1
82 |  | 5.62 | C[C@@H](NC(=O)NCc1ccccc1)c1[nH]nc(-c2ccc(F)cc2)c1-c1ccncc1
83 | 24 |  | O=C(NCc1[nH]nc(-c2ccc(F)cc2)c1-c1ccncc1)c1cccc(Br)c1
84 | 36 |  | O=C(NCc1[nH]nc(-c2ccc(F)cc2)c1-c1ccncc1)c1c(F)ccc(F)c1F
85 | 9 |  | CCOC(=O)C(CC(C)C)NC(=O)NCc1[nH]nc(-c2ccc(F)cc2)c1-c1ccncc1 (stereo not given)
86 | 86 |  | C[C@@H](NC(=O)c1c(F)cccc1C(F)(F)F)c1[nH]nc(-c2ccc(F)cc2)c1-c1ccncc1
87 |  | 6.30 | C#CCn1cc(-c2ccncc2)c(-c2ccc(F)cc2)n1
88 | 54 |  | C[C@H](NC(=O)N(C)C)c1[nH]nc(-c2ccc(F)cc2)c1-c1ccncc1
89 |  | 6.23 | OCCn1cc(-c2ccnc(CCc3ccc(F)cc3)c2)c(-c2ccc(F)cc2)n1
90 | 50 |  | O=C(NCc1[nH]nc(-c2ccc(F)cc2)c1-c1ccncc1)c1ccccc1Br
